# Measured values from patent US20210071180A1, “MICRORNA 584-5P COMPOSITIONS AND METHODS FOR TREATING CANCER” (BOARD OF REGENTS, THE UNIVERSY OF TEXAS SYSTEM, priority 2018, published 2021).
# How the values were obtained:
# D458Med cells = test: miRNA mimic library screen, CellTiter-Glo cell viability; format: cell-based; settings: screen of 1,902 miRNA mimics, VCR at IC20
# Experimental: To identify miRNAs that may sensitize VCR response in MB, a high-throughput screening platform was combined with a library of 1,902 chemically synthesized human miRNA mimics. The miRNAs are arrayed in a one-miRNA-one-well format in 96-well microtiter plates. Reverse transfection of Group 3/c-Myc-amplified D458Med cells was performed in triplicate in the presence and absence of a sublethal dose of VCR, which was optimized in four MB cell lines before the screen (FIG. 2A). Cells were subjected to VCR at an IC20 lethal concentration for 72 hours after 48 hours of transfection, and cell viability was measured (FIG. 1A). Candidate miRNAs were prioritized for validation by functional and interaction assays using standard Student t-tests (with pooled variance), false discovery rate (Q=0.5%), and by using the magnitude of response (lowest 2.5 percentile of the distribution of the μVCR/μControl ratios).
# miRNA mimic library screen. The primary screen was conducted using MI00200 MISSION microRNA Mimic v.17, in which miRNA mimics were arrayed in a one-miRNA-one-well format in 96-well microtiter plates. […] Cell viability was assessed using CellTiter-Glo (Promega, Madison, Wis., USA) according to the manufacturer's protocol. ath-miR-416 or cel-miR-243 was added as a negative control, whereas siRNA against PLK-1 was used as a positive control in each plate. […]
# HDAC1 = test: qPCR and Western blot of HDAC1 in MB cells; format: cell-based; settings: transcript and protein levels, all cell lines tested
substance,measurement,setting,value
miR-584-5p: microRNA mimic; nucleotide sequence UUAUGGUUUGCCUGGGACUGAG (SEQ ID NO: 1); purchased from Thermofisher (chemistry not given here),difference in cell viability in VCR-treated MB cells in comparison with untreated cells,D458Med cells,highest magnitude of difference in cell viability
same,expression of HDAC1,HDAC1,significantly reduced expression
